From ChEMBL document CHEMBL4411258, “Novel natural compounds from endophytic fungi with anticancer activity” (Eur J Med Chem, 2018)
In brackets after ≈: the same amount, converted by molar mass. Values belong to the compound of their own block, whether it stands above or below them. Positions of bridges follow the written chain, without caps; N, C: chain ends. Residues, ends and D or L forms follow the SMILES beside them.

Tests used:
KB = experiment: Cytotoxicity against human KB cells after 48 hrs by neutral red dye based assay; format: functional, cell-based
BT-549 = experiment: Cytotoxicity against human BT549 cells after 48 hrs by neutral red dye based assay; format: functional, cell-based; details: BT-549, 48 h
SK-OV-3 = experiment: Cytotoxicity against human SKOV3 cells after 48 hrs by neutral red dye based assay; format: functional, cell-based; details: SK-OV-3, 48 h
A2780 = experiment: Cytotoxicity against human A2780 cells after 72 hrs by MTT assay; format: functional, cell-based; details: A2780, 72 h
A2780cisR = experiment: Cytotoxicity against human A2780cisR cells after 72 hrs by MTT assay; format: functional, cell-based
HL-60 [1] = experiment: Cytotoxicity against human HL60 cells by CCK8 assay; format: functional, cell-based
MCF7 [2] = experiment: Cytotoxicity against human MCF7 cells by CCK8 assay; format: functional, cell-based
A549 [3] = experiment: Cytotoxicity against human A549 cells by CCK8 assay; format: functional, cell-based
SW480 [4] = experiment: Cytotoxicity against human SW480 cells by CCK8 assay; format: functional, cell-based
SMMC-7721 [5] = experiment: Cytotoxicity against human SMMC7721 cells by CCK8 assay; format: functional, cell-based
HCT-116 = experiment: Cytotoxicity against human HCT116 cells by MTT assay; format: functional, cell-based
HeLa = experiment: Cytotoxicity against human HeLa cells by MTT assay; format: functional, cell-based
A549 [6] = experiment: Cytotoxicity against human A549 cells by MTT assay; format: functional, cell-based
OVCAR-3 = experiment: Cytotoxicity against human OVCAR3 cells assessed as reduction in cell viability after 72 hrs by CyQuant dye-based assay; format: functional; details: OVCAR-3, 72 h
HL-60 [7] = experiment: Cytotoxicity against human HL60 cells after 48 hrs by MTT assay; format: functional, cell-based; details: HL-60, 48 h
[8] = Inhibition of TNFalpha-induced NFkappaB (unknown origin) activation expressed in HEK293 cells after 6 hrs by luciferase reporter gene based assay; format: cell-based; details: Homo sapiens, HEK293, 6 h
A549 [9] = experiment: Cytotoxicity against human A549 cells after 24 hrs by MTT assay; format: functional, cell-based; details: A549, 24 h
LoVo = experiment: Cytotoxicity against human LoVo cells after 24 hrs by MTT assay; format: functional, cell-based
HL-60 [10] = experiment: Cytotoxicity against human HL60 cells after 24 hrs by MTT assay; format: functional, cell-based; details: HL-60, 24 h
MKN-45 = experiment: Cytotoxicity against human MKN45 cells after 24 hrs by MTT assay; format: functional, cell-based; details: MKN-45, 24 h
HepG2 = experiment: Cytotoxicity against human HepG2 cells after 24 hrs by MTT assay; format: functional, cell-based; details: HepG2, 24 h
MCF7 [11] = experiment: Cytotoxicity against human MCF7 cells after 24 hrs by MTT assay; format: functional, cell-based; details: MCF7, 24 h
MCF7 [12] = experiment: Cytotoxicity against human MCF7 cells after 48 hrs by MTT assay; format: functional, cell-based; details: mcf7
SMMC-7721 [13] = experiment: Cytotoxicity against human SMMC7721 cells after 48 hrs by MTT assay; format: functional, cell-based; details: smmc-7721
A549 [14] = experiment: Cytotoxicity against human A549 cells after 48 hrs by MTT assay; format: functional, cell-based; details: a549
L5178Y = experiment: Cytotoxicity against mouse L5178Y cells by MTT assay; format: functional, cell-based
PC-12 = experiment: Cytotoxicity against rat PC12 cells by MTT assay; format: functional, cell-based
SW480 [15] = experiment: Cytotoxicity against human SW480 cells by MTT assay; format: functional, cell-based
HuCC-A1 = experiment: Cytotoxicity against human HuCCa1 cells by MTT assay; format: functional, cell-based
MOLT-3 = experiment: Cytotoxicity against human MOLT3 cells by XTT assay; format: functional, cell-based
NCI-H460 = experiment: Cytotoxicity against human NCI-H460 cells; format: functional, cell-based
SW480 [16] = experiment: Cytotoxicity against human SW480 cells assessed as inhibition of cell growth at 40 uM by MTS assay; format: functional; details: read-out: GI
MCF7 [17] = experiment: Cytotoxicity against human MCF7 cells assessed as inhibition of cell growth at 40 uM by MTS assay; format: functional; details: read-out: GI
SMMC-7721 [18] = experiment: Cytotoxicity against human SMMC7721 cells assessed as inhibition of cell growth at 40 uM by MTS assay; format: functional; details: read-out: GI
A549 [19] = experiment: Cytotoxicity against human A549 cells assessed as inhibition of cell growth at 40 uM by MTS assay; format: functional; details: read-out: GI
HL-60 [20] = experiment: Cytotoxicity against human HL60 cells assessed as inhibition of cell growth at 40 uM by MTS assay; format: functional; details: read-out: GI
HL-60 [21] = experiment: Cytotoxicity against human HL60 cells by trypan blue exclusion assay; format: functional, cell-based
K562 = experiment: Cytotoxicity against human K562 cells by trypan blue exclusion assay; format: functional, cell-based

SMILES: C=C(CC[C@@H](C)[C@H]1CC=C2C3=C([C@@H](O)[C@H](OC(C)=O)[C@@]21C)[C@@]1(C)C[C@@H](OC(C)=O)[C@H](OC(C)=O)C(C)(C)[C@@H]1CC3)C(C)C
IC50 (KB): 0.18 µM | IC50 (BT-549): 1.82 µM | IC50 (SK-OV-3): 1.32 µM

SMILES: O=C1N2[C@H]3C(=CC=C[C@@H]3O)C[C@]23SS[C@]12C[C@H]1[C@@H]([C@@H](O)C=C[C@@H]1O)N2C3=O
IC50 (A2780): 0.664 µM | IC50 (A2780cisR): 0.661 µM

SMILES: C=C1[C@@H](C)[C@H]2[C@H](Cc3ccccc3)NC(=O)[C@]23c2ccc(o2)CCC[C@@H](C)C/C=C/[C@H]3[C@@H]1O
IC50 (HL-60 [1]): 7.7 to 15.8 µM | IC50 (MCF7 [2]): 7.7 to 15.8 µM | IC50 (A549 [3]): 7.7 to 15.8 µM | IC50 (SW480 [4]): 7.7 to 15.8 µM | IC50 (SMMC-7721 [5]): 7.7 to 15.8 µM

SMILES: CCCCc1c(OC)cc(=O)oc1C
IC50 (HCT-116): 45.1 µM | IC50 (HeLa): 27 µM | IC50 (A549 [6]): 38.7 µM

SMILES: CC1=CC[C@H]2C(C)(C)CCC[C@]2(C)[C@H]1C[C@@]12O[C@@H]1C(=O)C(CO)=C[C@H]2O
IC50 (OVCAR-3): 0.5 µM

SMILES: COc1ccc(O)c2c(=O)oc3cc(O)cc(C)c3c12
IC50 (HL-60 [7]): 85 µM

IC50 [8]: 7.1 µM
SMILES: CCCCC[C@@H]1OC2=C(C(=O)N(OC)C2CSC[C@@H](O)C(=O)O)[C@H](O)[C@@]1(C)O (stereo partly drawn)

SMILES: CCCC[C@H](O)C(=O)C/C(=C\C(=O)O)OC
IC50 (A549 [9]): < 200 µM | IC50 (LoVo): < 200 µM | IC50 (HL-60 [10]): < 200 µM | IC50 (MKN-45): < 200 µM

SMILES: CC[C@H](C)[C@@H]1NC(=O)[C@@H]2CSSC[C@H](NC(=O)[C@H](CC(C)C)NC(=O)[C@H](C(C)C)NC1=O)C(=O)N2 (cyclo(CCIVL); disulfide 1-2)
IC50 (A549 [9]): 2.42 µM | IC50 (HepG2): 36 µM | IC50 (MCF7 [11]): 0.65 µM

SMILES: COc1cc(=O)oc2c1CO[C@@](C)(OC)[C@H]2C
IC50 (MCF7 [12]): 17.7 µM | IC50 (SMMC-7721 [13]): 35.1 µM | IC50 (A549 [14]): 17.5 µM

SMILES: CCCCCCCCCCC[C@@H](C)[C@@H]1CC(=O)N[C@@H]([C@H](C)O)C(=O)N[C@@H](C)C(=O)N[C@H](C)C(=O)N[C@@H](CCC(N)=O)C(=O)N[C@H](Cc2ccc(O)cc2)C(=O)N[C@@H]([C@@H](C)CC)C(=O)O1
IC50 (L5178Y): 5.71 µM | IC50 (PC-12): 9.55 µM

SMILES: CC1=C(C=O)[C@@]2(C)CCCC(C)(C)[C@@H]2C[C@@H]1O
IC50 (SW480 [15]): 8.72 µM

SMILES: COCC1=C2C=C(C)OC=C2[C@H](O)[C@@](C)(O)C1=O
IC50 (HuCC-A1): 48.1 µg/mL (≈ 191 µM) | IC50 (MOLT-3): 17.4 µg/mL (≈ 69 µM) | IC50 (A549 [6]): 46.5 µg/mL

SMILES: CC[C@@H](O)[C@H](O)[C@@H]1C[C@](O)(OC)CC(=O)O1
IC50 (A549 [9]): < 200 µM | IC50 (LoVo): < 200 µM | IC50 (HL-60 [10]): < 200 µM | IC50 (MKN-45): < 200 µM

SMILES: C=C(CC[C@@H](C)[C@H]1CC=C2C3=C([C@@H](O)[C@H](OC(C)=O)[C@@]21C)[C@@]1(C)C[C@@H](O)[C@H](OC(=O)c2ccc(O)cc2)C(C)(C)[C@@H]1CC3)C(C)C
IC50 (KB): 2.54 µM | IC50 (BT-549): 2.46 µM | IC50 (SK-OV-3): 3.01 µM

SMILES: CC1(C)C=Cc2cc3c(cc2O1)NC(=O)[C@]31C[C@@]23NC(=O)[C@]4(CCCN4C2=O)C[C@@H]3C1(C)C
IC50 (NCI-H460): 55.9 µM

SMILES: C=C1[C@@H](C)[C@H]2[C@H](Cc3c[nH]c4ccccc34)NC(=O)[C@@]2(C(=O)CCC(=O)OC)[C@@H](/C=C/CC(C)/C=C(\C)C=O)[C@@H]1O (stereo partly drawn)
inhibition of growth at 40 µM (SW480 [16]): 61% | inhibition of growth at 40 µM (MCF7 [17]): 58% | inhibition of growth at 40 µM (SMMC-7721 [18]): 51% | inhibition of growth at 40 µM (A549 [19]): 67% | inhibition of growth at 40 µM (HL-60 [20]): 96%

SMILES: COc1cc(=O)oc(C)c1CCC(C)=O
IC50 (HL-60 [21]): 0.18 µg/mL (≈ 0.856 µM) | IC50 (K562): 0.3 µg/mL (≈ 1.43 µM)

SMILES: C=CC1(C)c2[nH]c3cc4c(cc3c2C[C@H]2C(=O)N3CCC[C@H]3C(=O)N21)C=CC(C)(C)O4 (stereo partly drawn)
IC50 (NCI-H460): 69.3 µM
